This assay deals with T1, human factor Xa (Homo sapiens, UniProt P00742).
T1 construct: 25 μl human factor Xa (Enzyme Research Laboratories, Inc; South Bend, Ind.) in TBS-PEG; purchased Enzyme Research Laboratories, Inc; South Bend, Ind
The assay can be described thus: Factor Xa assay (chromogenic, substrate S-2765). The format is biochemical. To be noted: inhibition constant for inhibition of factor Xa; IC50 corrected for substrate competition; 0.5 nM enzyme, 140 μM S-2765, 25° C., pH 7.8; read-out: Ki(FXa). How it is done:
The ability of the compounds of the formula I to inhibit factor Xa or factor VIIa or other enzymes like thrombin, plasmin, or trypsin can be assessed by determining the concentration of the compound of the formula I that inhibits enzyme activity by 50%, i. e. the IC50 value, which was related to the inhibition constant Ki. Purified enzymes were used in chromogenic assays. The concentration of inhibitor that causes a 50% decrease in the rate of substrate hydrolysis was determined by linear regression after plotting the relative rates of hydrolysis (compared to the uninhibited control) versus the log of the concentration of the compound of formula I. For calculating the inhibition constant Ki, the IC50 value was corrected for competition with substrate using the formula Ki=IC50/{1+(substrate concentration/Km)} wherein Km is the Michaelis-Menten constant (Chen and Prusoff, Biochem. Pharmacol. 22 (1973), 3099-3108; I. H. Segal, Enzyme Kinetics, 1975, John Wiley & Sons, New York, 100-125; which were incorporated herein by reference). a) Factor Xa Assay
In the assay for determining the inhibition of factor Xa activity TBS-PEG buffer (50 mM Tris-HCl, pH 7.8, 200 mM NaCl, 0.05% (w/v) PEG-8000, 0.02% (w/v) NaN3) was used. The IC50 was determined by combining in appropriate wells of a Costar half-area microtiter plate 25 μl human factor Xa (Enzyme Research Laboratories, Inc.; South Bend, Ind.) in TBS-PEG; 40 μl 10% (v/v) DMSO in TBS-PEG (uninhibited control) or various concentrations of the compound to be tested diluted in 10% (v/v) DMSO in TBS-PEG; and substrate S-2765 (N(α)-benzyloxycarbonyl-D-Arg-Gly-L-Arg-p-nitroanilide; Kabi Pharmacia, Inc.; Franklin, Ohio) in TBS-PEG.
The assay was performed by pre-incubating the compound of formula I plus enzyme for 10 min. Then the assay was initiated by adding substrate to obtain a final volume of 100 μl. The initial velocity of chromogenic substrate hydrolysis was measured by the change in absorbance at 405 nm using a Biotek Instruments kinetic plate reader (Ceres UV900HDi) at 25° C. during the linear portion of the time course (usually 1.5 min after addition of substrate). The enzyme concentration was 0.5 nM and substrate concentration was 140 μM.

We go through ten compounds from patent US7317027B2, “Azaindole-derivatives as factor Xa inhibitors” (Sanofi-Aventis Deutschland GmbH, priority 2003, dated 2008).

Molecules are shown by their SMILES.

T1 sequence (P00742 235-488 limits assumed): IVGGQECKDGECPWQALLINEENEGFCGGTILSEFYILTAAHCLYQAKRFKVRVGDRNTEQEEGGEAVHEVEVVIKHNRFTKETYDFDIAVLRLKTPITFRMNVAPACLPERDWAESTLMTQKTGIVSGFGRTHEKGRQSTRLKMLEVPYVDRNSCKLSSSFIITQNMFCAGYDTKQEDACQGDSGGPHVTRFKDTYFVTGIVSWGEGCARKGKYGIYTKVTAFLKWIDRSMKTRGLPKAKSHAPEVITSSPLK
T1 sequence (P00742 41-179 partner limits assumed): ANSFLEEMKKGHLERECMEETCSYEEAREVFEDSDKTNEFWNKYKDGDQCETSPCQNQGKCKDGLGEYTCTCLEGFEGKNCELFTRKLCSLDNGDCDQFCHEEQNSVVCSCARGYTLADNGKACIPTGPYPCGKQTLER

By Ki is commonly meant a dissociation constant, usually derived from enzyme kinetics or from competition with a known ligand. With `O=C(O)c1ccc2c(cc(C(=O)NC3CCN(c4ccncc4)CC3)n2Cc2cc(-c3ccc(Cl)s3)on2)n1` [Example 9, 1-[5-(5-Chloro-thiophen-2-yl)-isoxazol-3-ylmethyl]-2-(3,4,5,6-tetrahydro-2H-[1,4′]bipyridyl-4-ylcarbamoyl)-1H-pyrrolo[3,2-b]pyridine-5-carboxylic acid], the Ki came out at 85 nM.
For `COC(=O)c1cnc2c(c1)cc(C(=O)NC1CCN(C(C)C)CC1)n2Cc1cc(-c2ccc(Cl)s2)on1` [Example 2, 1-[5-(5-Chloro-thiophen-2-yl)-isoxazol-3-ylmethyl]-2-(1-isopropyl-piperidin-4-ylcarbamoyl)-1H-pyrrolo[2,3-b]pyridine-5-carboxylic acid methyl ester], the Ki worked out at 55 nM.
Consider `CC(C)N1CCC(NC(=O)c2cc3nc(C(=O)O)ccc3n2Cc2cc(-c3ccc(Cl)s3)on2)CC1` [Example 6, 1-[5-(5-Chloro-thiophen-2-yl)-isoxazol-3-ylmethyl]-2-(1-isopropyl-piperidin-4-ylcarbamoyl)-1H-pyrrolo[3,2-b]pyridine-5-carboxylic acid], for which the Ki was determined as 10 nM.
With `CC(C)N1CCC(NC(=O)c2cc3cc(OCCO)ncc3n2CC(=O)Nc2ccc(Cl)cn2)CC1` [Example 13, 1-[(5-Chloro-pyridin-2-ylcarbamoyl)-methyl]-5-(2-hydroxy-ethoxy)-1H-pyrrolo[2,3-c]pyridine-2-carboxylic acid (1-isopropyl-piperidin-4-yl)-amide] the figure was 44 nM.
With `CC(C)N1CCC(NC(=O)c2cc3cc(OCCO)ncc3n2Cc2cc(-c3ccc(Cl)s3)on2)CC1` [Example 11, 1-[5-(5-Chloro-thiophen-2-yl)-isoxazol-3-ylmethyl]-5-(2-hydroxy-ethoxy)-1H-pyrrolo[2,3-c]pyridine-2-carboxylic acid (1-isopropyl-piperidin-4-yl)-amide] the figure was 47 nM.
Regarding `CC(C)N1CCC(NC(=O)c2cc3[nH]c(=O)ccc3n2Cc2cc(-c3ccc(Cl)s3)on2)CC1` [Example 7, 1-[5-(5-Chloro-thiophen-2-yl)-isoxazol-3-ylmethyl]-5-oxo-4,5-dihydro-1H-pyrrolo[3,2-b]pyridine-2-carboxylic acid (1-isopropyl-piperidin-4-yl)-amide], the Ki was determined as 23 nM.
With `CC(C)N1CCC(NC(=O)c2cc3ncccc3n2Cc2cc(-c3ccc(Cl)s3)on2)CC1` [Example 5, 1-[5-(5-Chloro-thiophen-2-yl)-isoxazol-3-ylmethyl]-1H-pyrrolo[3,2-b]pyridine-2-carboxylic acid (1-isopropyl-piperidin-4-yl)-amide] the figure was 4 nM.
With `CC(C)N1CCC(NC(=O)c2cc3cc(C(N)=O)cnc3n2Cc2cc(-c3ccc(Cl)s3)on2)CC1` [Example 4, 1-[5-(5-Chloro-thiophen-2-yl)-isoxazol-3-ylmethyl]-1H-pyrrolo[2,3-b]pyridine-2,5-dicarboxylic acid 5-amide 2-[(1-isopropyl-piperidin-4-yl)-amide]] the figure was 70 nM; with `CC(C)N1CCC(NC(=O)c2cc3cc(C(=O)O)cnc3n2Cc2cc(-c3ccc(Cl)s3)on2)CC1` [Example 3, 1-[5-(5-Chloro-thiophen-2-yl)-isoxazol-3-ylmethyl]-2-(1-isopropyl-piperidin-4-ylcarbamoyl)-1H-pyrrolo[2,3-b]pyridine-5-carboxylic acid], 67 nM; with `CC(C)N1CCC(NC(=O)c2cc3cccnc3n2Cc2cc(-c3ccc(Cl)s3)on2)CC1` [Example 1, 1-[5-(5-Chloro-thiophen-2-yl)-isoxazol-3-ylmethyl]-1H-pyrrolo[2,3-b]pyridine-2-carboxylic acid (1-isopropyl-piperidin-4-yl)-amide], 6 nM.
